ChEMBL document CHEMBL1143158, “Tritium radiolabelling of PB28, a potent sigma-2 receptor ligand: pharmacokinetic and pharmacodynamic characterization” (Bioorg Med Chem Lett, 2008)

How the values were obtained:
[1] = Displacement of [3H]PB28 from sigma 2 receptor in rat liver membrane; assay type: cell membranes
[2] = Displacement of [3H]DTG from sigma 2 receptor in rat liver membrane; assay type: cell membranes
Rattus norvegicus = species on record: Rattus norvegicus; experiment: Selectivity for rat sigma 2 receptor over rat sigma1 receptor; conditions: tested as the 3H-labelled form
[3] = Binding affinity to sigma 2 receptor in rat liver membrane by saturation analysis; assay type: cell membranes
[4] = target: Sigma non-opioid intracellular receptor 1 (Rattus norvegicus, UniProt Q9R0C9); experiment: Binding affinity to sigma 1 receptor in rat liver membrane; assay type: cell membranes
Sigma non-opioid intracellular receptor 1, sequence (Q9R0C9 whole entry): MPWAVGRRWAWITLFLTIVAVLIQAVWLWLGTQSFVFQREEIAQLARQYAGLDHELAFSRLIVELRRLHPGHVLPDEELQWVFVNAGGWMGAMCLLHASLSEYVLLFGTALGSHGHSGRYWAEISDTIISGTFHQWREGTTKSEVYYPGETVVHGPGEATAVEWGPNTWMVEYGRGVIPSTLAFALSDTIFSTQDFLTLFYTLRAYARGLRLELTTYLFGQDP

Row | SMILES | Ki [1] [nM] | Ki [2] [nM] | Selectivity ratio (Rattus norvegicus) | Kd [3] [nM] | Ki [4] [nM]
1 | COc1cccc2c1CCCC2CCCN1CCN(C2CCCCC2)CC1 (centres undefined) | 0.57 | 0.34 | 40 |  | 
2 | Cc1ccccc1NC(=N)Nc1ccccc1C [DITOLYLGUANIDINE] | 42 |  |  |  | 
3 | [3H]C1CCCCC1([3H])N1CCN(CCCC2CCCc3c(OC)cccc32)CC1 (centres undefined) |  |  |  | 0.12 | 13.6

Continued, values first:

Row | Ki [1] [nM] | Ki [2] [nM] | Selectivity ratio (Rattus norvegicus) | Kd [3] [nM] | Ki [4] [nM] | SMILES
4 | 5.85 | 7.38 |  |  |  | O=C(CCCN1CCC(O)(c2ccc(Cl)cc2)CC1)c1ccc(F)cc1 [HALOPERIDOL]
5 |  |  |  | 0.66 |  | [3H]C([3H])([3H])Oc1ccc(C)cc1C(=O)NCCCCN1CCc2cc(OC)c(OC)cc2C1
